Results published in patent US9732367B2, “Cell lines” (MEDIMMUNE LIMITED, priority 2012, dated 2017).
Values joined by “and” are separate entries in the source; they are usually repeats but may differ in a detail not shown here. Equal entries are not always repeated.

Legend:
[1] = biological target: T1, pylRS/tRNA pair (Methanosarcina mazei, UniProt Q8PWY1); assay: GFP assay: translational testing of pyrrolysine analogs as nnAAs; format: cell-based; conditions: Formula V analogs, nnAA 2 mM, 2-3 days; for MFI: geometric mean
T1 construct: expressed in transfected cells; host or cells: HEK293 clone 3H7
From the text: An in vitro cell based assay was developed to assess the compatibility of the pylRS/tRNA pair and the pyrrolysine analogs of the present invention (nnAAs) by and the efficiency of nnAAs integration into a target protein. For this, HEK293 cells stably expressing pylRS (3H7) were transiently transfected with plasmids for the expression of tRNApyl and a reporter construct encoding GFPY40 (containing amber codon in place of tyrosine at amino acid residue number 40 (where 1 is the initiator methionine)) using standard transfection protocols. Transfected cells were incubated with nnAAs at 2 mM for 2-3 days GFP production was analyzed qualitatively by visual inspection under the microscope. The GFP fluorescence was quantified by flow cytometry using an Accuri flow cytometer and the geometric mean of the fluorescent cells determined.
This cell based assay was used to determine whether the different nnAAs were suitable substrates for the pylRS and allowed its translation into a target protein. Cells expressing the PylRS/tRNApyl pair and containing a vector encoding the GFPY40 reporter gene were incubated in the presence of the nnAAs. nnAAs that are readily utilized by the PylRS/tRNApyl pair support the translation of the nnAA into the amber site of GFP and allow read-through of the gene producing full length GFP (fluorescent protein). The fluorescence intensity of the cells depends on the efficiency of nnAA incorporation. Thus, nnAAs that are poorly utilized produce weakly fluorescent or non-fluorescing cells. […] Furthermore, the relative expression levels in each sample was compared to those generated by substrates known to be efficiently utilized by pylRS.

[2] = test system: HEK293 c18 cells; assay: MTS viability assay with nnAA titration in cells transfected with pylRS and tRNA; conditions: ALOC 5 mM to 0.08 mM, 5 days
Experimental: Finally, to determine whether amber suppression led to cytostatic effects, 1000 HEK293 c18 cells plates in a 96 well plate and transiently transfected with pCEP4-pylRS and pOriP-9×tRNA constructs. Cells were grown in DMEM-C medium containing a titration of nnAA (ALOC) starting with 5 mM to 0.08 mM. Cell viability was assayed at the time of the transfection, and after 5 days growth using an MTS colorimetric assays (FIG. 4D).

[3] = biological target: T2, pylRS (Methanosarcina mazei, UniProt Q8PWY1); assay: In vitro GFPY40 functional assay: dnnAA competition with lys azide in HEK293 cells stably expressing pylRS; format: cell-based; conditions: lys azide with 0.5 mM, 1 mM and 2 mM dnnAA
T2 construct: expressed in transfected cells
From the text: Effective dnnAAs were identified by their ability to compete with a high affinity substrate for pylRS (lys-azide) in an in vitro assay, for their ability to reduce background amber suppression levels observed with a reporter protein, and for their ability to improve the viability and function of cells previously selected for high pylRS/tRNA activity.
To identify analogues that could effectively compete for pylRS binding with lys-azide, dnnAAs were first tested for function in an in vitro functional assay based on the ability of cells expressing WT pylRS and tRNApyl to introduce a nnAA at a target site in the reporter protein GFPY40. This reporter contains an amber codon in its open reading frame that, in the absence of amber suppression, generates a truncated protein that is not fluorescent. In the event of amber suppression, a full length GFP protein is generated that is detectable by fluorescence detection methods. In this assay, HEK293 cells stably expressing pylRS, were transiently transfected with a tRNA expression construct and the GFPY40 reporter cassette. Cells were then incubated with 0.5 mM lys azide in the presence or absence of different concentrations of dnnAA ranging from 0.5 mM to 2 mM. GFP fluorescence levels were then quantified by flow cytometry. For this assay the proportion of fluorescent cells in each condition was determined and plotted. As the dnnAAs are expected to compete with the nnAA (lys-azide) for pylRS/tRNA binding, an effective dnnAA should reduce or prevent the expression of full length GFP (as described above dnnAAs can be delivered by the tRNA to the amber site, but cannot propagate protein synthesis).
A similar in vitro assay was used to gauge the effectiveness of the dnnAAs of Formula VIIB listed in Table 1 where a description of the amino acids tested and a summary of the results are shown For this assay the geometric mean fluorescence intensity of each sample was determined by flow cytometry and plotted. For each dnnAA tested control cells transfected with wild type GFP were measured as a positive control. In addition cells transfected with the reporter GFPY40 and exposed to 0.5 mM lys azide or 2 mM lys azide were used to determine maximal GFP expression levels in the absence of an inhibitor. In each case robust GFP expression levels were observed. To test whether any of the dnnAA could reduce the efficacy of GFP expression, cells were incubated in the presence of 0.5 mM, 1 mM and 2 mM […]. […] Thus, dnnAAs of the present invention can compete with the lys-azide nnAA for binding to the pylRS and interfere with the physiological mechanism of nnAA introduction. Cells transfected with the pylRS/tRNA pair and the GFPY40 reporter construct but not exposed to either lys-azide or a dnnAA were used to determine levels of background amber suppression and used as a negative control. In each case low GFP expression levels were observed.

[4] = test system: background amber suppression; assay: Background amber suppression (GFPY40 reporter, pylRS/tRNApyl, dnnAA without nnAA); format: cell-based
Experimental: The competitive assay for dnnAA inhibition in the presence of a high affinity substrate identified dnnAAs that compete for binding with to the pylRS and thus are specific inhibitors of the pylRS/tRNA. However, the decoy nnAA is intended to reduce the levels of background amber suppression in the absence of nnAA. To determine if background amber suppression levels could be reduced, we incubated cells containing the GFPY40 reporter construct and the pylRS/tRNApyl pair in medium containing one of the dnnAAs. To do this, HEK293 cells stably expressing pylRS were transiently transfected with a tRNA expression construct and the GFPY40 reporter cassette. After 3 days of incubation, cells were assayed for expression of GFP by flow cytometry and geometric mean fluorescence intensity of the samples determined. We have previously observed that cells containing the full complement of the pylRS/tRNA amber suppression system show detectable expression of the GFP reporter construct that is above what is observed in cells lacking the amber suppression system. […] To identify dnnAAs capable of reducing background amber suppression levels the transfected cells were incubated with each of the dnnAAs at 0.5 mM, 1 mM and 2 mM and GFP levels measured by flow cytometry.
The decrease in background amber suppression dependent GFP expression was dose dependent and improved as the dnnAA concentration increased. […] This feature is an attractive characteristic for platform development as it enables the repression of background amber suppression but the system can be activated upon addition of a strong pylRS substrate such as lys-azide. […] Their efficacy was quantified by the reduction in GFP expression relative to a control sample (not exposed to dnnAA) and the data are summarized in Table 1.

[5] = test system: CHO cells stably expressing pylRS and tRNApyl and an IgG directed against her2/neu containing an amber codon; assay: Growth and viability of pylRS/tRNApyl cell line treated with lys azide and dnnAA; format: cell-based; conditions: 2 mM dnnAA with 0.5 mM lys-azide
From the text: To examine whether the dnnAAs of the invention could function to improve the viability of cells containing pylRS and tRNApyl we monitored the growth and viability of a cell line, stably expressing pylRS and tRNApyl. For this assay CHO cells stably expressing pylRS and tRNApyl and an IgG directed against her2/neu containing an amber codon in the heavy chain, shown to effectively incorporate nnAA into the expressed IgG thus producing an antibody containing a nnAA, were used for this experiment. Despite a high expression level of pylRS/tRNApyl pair, this cell line has very robust cell growth characteristics when grown in medium lacking nnAA. The presence of a highly expressed target containing an amber codon likely has a protective effect on the cells by supplying them with high levels of amber codons that absorb the amber suppression activity and protects the cells from the effects of background amber suppression at essential genes. However, upon addition of the nnAA (lys-azide) to the growth medium, and activation of the amber suppression machinery, a decrease in cell growth rate is observed. […] To determine whether a dnnAA can rescue this effect, cells cultured in serum free medium were grown to a cell density of 0.5×10^6 cells/mL and subsequently treated with 0.5 mM lys azide alone or in combination with 2 Mm dnnAA. Cell viability and cell numbers were monitored daily over seven days. Cells treated with lys azide alone reached a cell density just below 1×10^6 cells/mL on day 3 after nnAA addition and remained at this density for the remainder of the assay (seven days) (FIG. 15A) The lack of growth was not likely due to loss of viability as the culture retained high viability throughout the experiment (˜70% viable cells) (FIG. 15B) Cultures treated with 2 mM Compound of formula VIIB.4, or 2 mM Formula VIIB.1 in combination with 0.5 mM lys-azide supported continued growth of the culture that reached over 1.5×10^6 cells/mL and retained a cell viability of 90%.

[6] = test system: platform cell line; assay: Platform cell line grown with or without dnnAA: cell numbers; format: cell-based
Experimental: (§1) To do this a platform cell line, selected for high activity of the amber suppression machinery was grown in the presence or absence of dnnAA for several passages and subsequently seeded into 96-well plates at ten cells per well and grown in the presence or absence of dnnAA (Formula VIIB.2). Each plate was incubated for several days and cells harvested, pooled and counted. […] This two fold increase in cell numbers may be due to the protective effects of the dnnAA. To examine the activity of the cells grown under these conditions, 0.5×10^6 cells pooled from each plate were seeded into a 6-well plate and transfected with a GFPY40 reporter construct in the absence of dnnAA and with lys-azide. After 24 hours the fluorescence intensity of the cells in each sample was analysed by flow cytometry. The data were gated to include single cells and plotted to display the intensity of each event (scatter plot, FIG. 16). The number of events falling within the top 10% of the GFP intensity spectrum were determined for each sample (Table 2). […] Cells from both groups were also transfected with a construct encoding wild type GFP. The same analyses were performed on this group.

[7] = test system: platform cell line; assay: GFPY40 reporter activity of platform cells grown with or without dnnAA (flow cytometry); format: cell-based
Experimental: as §1

[8] = test system: db/db mice; assay: Fed glucose blood levels in db/db mice; format: in vivo, mouse; conditions: 0.25 mg/Kg daily subcutaneously, day 3
Experimental: To assess the potency of the PEGylated FGF21 constructs obese, db/db mice were treated daily with 0.25 mg/Kg FGF21 or 20K PEG-FGF21 and glucose levels measured in fed mice after three treatments using a handheld glucose monitor, (FIG. 7B).
The homozygous db/db mouse (B6.BKS(D)-Leprdb/j, Jackson labs) is a well characterized animal model for diabetes and becomes obese after 3-4 weeks of age. The animals also display elevated plasma insulin, blood sugar, and delayed wound healing. In this study, 7-8 week old, male db/db mice were fed Lab Diet 5053 Rodent Diet 20 ad libitum. Mice were acclimatized for seven days and subsequently administered PEGylated FGF21, unmodified FGF21 and vehicle (PBS) subcutaneously daily for […].
Each mouse was administered 0.25 mg/Kg of PEG-FGF21 or unmodified FGF21 daily for three days. Fed glucose blood levels were determined by tail clip bleeding one hour after compound administration on day 3, and glucose levels measured by a handheld glucose meter (Bayer).

[9] = Tracer (wild type GFP) transfected, sample 6

T1 sequence (Q8PWY1 whole entry): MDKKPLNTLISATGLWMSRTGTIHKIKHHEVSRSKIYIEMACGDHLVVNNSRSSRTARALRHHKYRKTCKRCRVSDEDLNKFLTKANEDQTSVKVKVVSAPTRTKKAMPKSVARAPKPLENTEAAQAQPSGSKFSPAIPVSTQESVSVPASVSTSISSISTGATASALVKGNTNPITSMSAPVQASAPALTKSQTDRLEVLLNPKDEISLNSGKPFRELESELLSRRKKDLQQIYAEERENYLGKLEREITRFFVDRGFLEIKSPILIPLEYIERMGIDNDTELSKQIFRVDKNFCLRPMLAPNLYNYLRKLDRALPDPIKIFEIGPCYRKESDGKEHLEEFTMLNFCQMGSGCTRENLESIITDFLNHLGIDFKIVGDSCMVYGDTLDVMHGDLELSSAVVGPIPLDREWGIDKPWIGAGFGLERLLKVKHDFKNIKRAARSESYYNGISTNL
T2 sequence (Q8PWY1 whole entry): as above

**Q.** How did the “Positive GFP” value [1] turn out when `C=CCOC(=O)NCCCC[C@H](N)C(=O)O` [Formula V.3, (2S)-2-amino-6-{[(prop-2-en-1-yloxy)carbonyl]amino}hexanoic acid] was run?
**A.** Yes

**Q.** What about the MFI [1] of the same molecule?
**A.** 2,250,000

**Q.** And the MFI ([1]; listed as V.3)?
**A.** 2250000

**Q.** And the “effect on cell viability/growth” value [2]?
**A.** cytotstatic effect

**Q.** What does the source list for `C=CCOC(=O)NCCCCC(=O)O` [Formula VIIB.2, 5-{[(prop-2-en-1-yloxy)carbonyl]amino}pentanoic acid]?
**A.** reduction of GFP expression relative to samples lacking dnnAA (geometric mean fluorescence intensity) [3]: relative reduction in GFP expression was much lower; reduction in background amber suppression levels ([4]; dnnAA at 0.5 mM, 1 mM and 2 mM): reduction in the background amber suppression levels; % Reduction at 2 mM Decoy ([4]; reduction in GFP expression relative to control not exposed to dnnAA, 3 days): 57.7%; prevention of cytostatic effects of amber suppression activation [5]: prevent the cytostatic effects; cell density ([5]; seven days): over 3 ×10^6 cells/mL; cell viability ([5]; seven days): over 90%; increase in cell numbers vs cultures without dnnAA [6]: two fold; cell numbers ([6]; 96-well plates, ten cells per well, grown in dnnAA): 3.0 ×10^6 cells/mL and 3.7 ×10^6 cells/mL; Top 300 (GM) ([7]; GFPY40 reporter with lys-azide, 24 hours, cells previously grown with decoy): 1142 and 1149 and 1135; # events in top gate ([7]; GFPY40 reporter, top 10% of GFP intensity, cells previously grown with decoy): 175 and 179 and 171; # events in top gate [7, 9]: 59; Top 300 (GM) [7, 9]: 529

B1: PEG-FGF21 (conjugate, UniProt Q9NSA1 29-209, looked up)
Fibroblast growth factor 21: HPIPDSSPLLQFGGQVRQRYLYTDDAQQTEAHLEIREDGTVGGAADQSPESLLQLKALKPGVIQILGVKTSRFLCQRPDGALYGSLHFDPEACSFRELLLEDGYNVYQSEAHGLPLHLPGNKSPHRDPAPRGPARFLPLPGLPPALPEPPGILAPQPPDVGSSDPLSMVGPSQGRSPSYAS
modifications: PEGylated
**Q.** How did the “glucose level maintenance vs placebo” value [8] turn out when B1 was run?
**A.** improved glucose level maintenance as compared to placebo controls

**Q.** What about the “potency on fed glucose blood levels” value [8] of the same molecule?
**A.** same potency of wild type FGF21
